Assays:
[1] = tested on: α-glucosidase I; conditions: N-linked oligosaccharide processing enzyme; cited from earlier work
[2] = tested on: hepatitis B virus (HBV); experiment: Intracellular HBV DNA in 2.2.15 cells (Southern blot, densitometry); type: cell-based, HBV in human hepatoma HepG 2.2.15 cells; conditions: for increase in intracellular HBV copy abundance: adjusted for loading variation
Description: HepG 2.2.15 cells were grown for 6 days in the presence of the indicated concentration of NBDNJ with one change of medium. After the sixth day (seventh day in culture), cells and medium were collected. Autoradiograms of the viral DNA detected by hybridization of membranes to HBV probes are shown.
FIG. 2B: autoradiogram of a Southern blot of total intracellular DNA, digested to completion with EcoRI, from cells maintained in the absence of NBDNJ (lane 1) and in the presence of the following NBDNJ concentrations:
DNA was prepared from the pellets as in Sells and Chen, Proc. Natl. Acad. Sci. USA 84, 1005-1009 (1987). For Southern blots [Maniatis et al., Molecular cloning, a laboratory manual, Cold Spring Harbor Laboratory, Cold Spring Harbor, N.Y. (1982)], DNA was resolved by electrophoresis through 1.2% agarose, transferred to H+ bond (Amersham) filter paper and hybridized with radioactive ^32 P (Amersham) HBV probe (made by the random priming method described by the kit manufacturer, (Amersham), using pHBV as template [Foster et al., Proc. Natl. Acad. Sci. USA 88, 2888-2892 (1991)].
The NBDNJ-mediated decrease in virion associated HBV DNA in the medium could have been due to a decrease in viral DNA synthesis. Alternatively, it could have been due to a post synthetic event such as virion assembly, transport or egress from the cell. To distinguish between these possibilities, the amount of intracellular HBV specific DNA in untreated and NBDNJ treated 2.2.15 cells was compared.
Total cellular DNA was prepared from treated and untreated cells and digested to completion with EcoRI to linearize viral genomes. Near equal microgram amounts of digestion products (as determined by ethidium bromide staining and hybridization to a cell specific probe) were resolved by electrophoresis, Southern blotted and hybridized with the HBV specific probe (FIG. 2B). Unit length HBV genomes migrating as 3.2 kb bands are detected in DNA derived from untreated 2.2.15 cells (lane 1) and virions isolated from control culture medium (lane 5).

[3] = Viability of 2.2.15 cells (propidium iodide FACS, 35S methionine incorporation); type: cell-based; conditions: human, 1000 μg/ml, six days, read-out: cells as viable as untreated controls
Description: Cell viability was measured by flow cytometry using a FACscan cytometer, Becton Dickinson, Sunnyvale, Calif., USA, after incubation with propidium iodide, as in Platt and Jacob, Eur. J. Biochem. 208, 187-193 (1992).
The decrease was not due to toxicity of NBDNJ, since 90% of the cells maintained in 1000 μgs/ml NBDNJ for six days were as viable as untreated controls, as determined by FACs analysis of propidium iodide stained cells and ^[35] -S methionine incorporation into proteins.

[4] = tested on: HBs proteins; experiment: Western blot of all HBs proteins in virions, filaments and spheres fractions; type: cell-based, HBV; conditions: medium of NBDNJ treated cultures, FIGS. 5B and 5C
Description: (§1) Polyethylene glycol (PEG) precipitates of culture medium (FIG. 5A) or partly purified virions, HBs filaments and spheres from untreated (FIG. 5B) and NBDNJ treated (FIG. 5C) cultures were resolved by SDS-PAGE (13.5% acrylamide), transferred to immobilin paper and incubated with PreS1 and PreS2 specific monoclonal antibody.
(§2) Samples were dissolved in loading buffer, resolved by electrophoresis through 13.5% SDS polyacrylamide gels (SDS-PAGE) and transferred to PVDF (Millipore) membranes and blocked with 5% powdered milk, as in Gultekin and Heerman, Analytical Biochem. 172, 320-329 (1989). After incubation with primary antibody overnight at room temperature in 1% bovine serum albumin (BSA) in TNE and second antibody (peroxidase conjugated goat anti-mouse IgG serum) for 1 hour in TNE at room temperature, membranes were developed in peroxide-diaminobenzidine (Sigma) PBS, as described in the manufacturer's instructions.
(§3) The ELISA results were confirmed by Western blot analysis of fractions from the sucrose gradient containing either intact virus, filaments or spheres (FIGS. 5B, from untreated cultures, and 5C, from NBDNJ treated cultures). […]
(§4) Fractions distal to the virion containing fractions (near the bottom of the gradient) were resolved in lane 1 to show specificity of the antibody. […] The images shown in FIGS. 5B and 5C) were quantified by densitometry.

[5] = tested on: LHBs (PreS1); experiment: Western blot of LHBs in sucrose gradient virion fraction; type: cell-based, HBV; conditions: Western blot densitometry, FIG. 5C vs 5B lane 2
Description: as §1, §2, §3, §4

SMILES: CCCCN1C[C@H](O)[C@@H](O)[C@H](O)[C@H]1CO [NBDNJ, N-butyl-1,5-dideoxy-1,5-imino-D-glucitol]
- inhibition of α-glucosidase I (in words) [1]: potent inhibitor
- increase in intracellular HBV copy abundance ([2]; NBDNJ 200 μg/ml): 1.7 fold
- increase in intracellular HBV copy abundance ([2]; NBDNJ 500 μg/ml): 3.0 fold
- increase in intracellular HBV copy abundance ([2]; NBDNJ 1000 μg/ml): 5.1 fold
- amount of intracellular HBV DNA (in words) ([2]; NBDNJ 200, 500, 1000 μg/ml): clear dose-dependent increase
- viability at 144 h [3]: 90%
- amount of all HBs proteins in virions, filaments and spheres [4]: decrease in the amount of all HBs proteins
- decrease of LHBs in virion samples compared to untreated [5]: approximately 4 fold

From patent US6037351A, “Method of inhibiting hepatitis B virus” (priority 1996, dated 2000)
